± gives the expanded uncertainty stated by the source.
Experiments:
[1] = Molar enthalpy of transition or fusion; conditions: Crystal; DSC
[2] = Crystal; DTA

For `COc1cc(CO)ccc1O` [4-hydroxy-3-methoxybenzyl alcohol], the “Molar enthalpy of transition or fusion” value [1] was 7.35 ± 0.335 kcal/mol and the Normal melting temperature [2] was 116 ± 1.1 °C.
